ChEMBL document CHEMBL6078677, “Discovery and optimization of tetrahydroacridine derivatives as a novel class of antibiotics against multidrug-resistant Gram-positive pathogens by targeting type I signal peptidase and disrupting bacterial membrane” (Eur J Med Chem, 2025)
In brackets after ≈: the same amount, converted by molar mass. Activity calls are given as the source filed them. The calls are words filed in the database; no cut-off is given here.

Experiments:
[1] = tested on: Staphylococcus aureus; test: microbe, parasite or virus in culture; assay type: functional; settings: M92-1, time 20 hrs
Description: Antimicrobial activity against Staphylococcus aureus M92-1 harboring erythromycin resistance rRNA methylase B, tetracycline efflux protein L and oxazolidinone-phenicol transferable resistance gene assessed as inhibition of visible growth of bacteria incubated for 20 hrs by broth microdilution method

[2] = tested on: Enterococcus faecalis; test: Antimicrobial activity against Enterococcus faecalis J2 harboring erythromycin-resistance rRNA methylase B and oxazolidinone phenicol transferable resistance gene assessed as inhibition of visible growth of bacteria incubated for 20 hrs by broth microdilution method; assay type: functional
[3] = tested on: Enterococcus faecalis; test: Antimicrobial activity against Enterococcus faecalis ES01 harboring erythromycin-resistance rRNA methylase B and vanB-type vancomycin-resistance locus assessed as inhibition of visible growth of bacteria incubated for 20 hrs by broth microdilution method; assay type: functional
[4] = tested on: Klebsiella pneumoniae; test: Antimicrobial activity against Klebsiella pneumoniae 9-1 assessed as inhibition of visible growth of bacteria incubated for 20 hrs by broth microdilution method; assay type: functional
[5] = Cytotoxicity against human Caco-2 cells assessed as cell viability at 16 times of MIC incubated for 48 hrs by CCK8 assay (reference value: 99.54 %); assay type: toxicity, cell-based; settings: read-out: Activity
[6] = Hemolytic activity in Kunming mouse erythrocytes assessed as hemolysis at 8 times of MIC measured after 1 hrs by absorbance based assay relative to control; assay type: toxicity, cell-based, Erythrocyte; settings: read-out: Activity
[7] = Cytotoxicity against human HEp-2 cells assessed as cell viability at 8 times of MIC incubated for 48 hrs by CCK8 assay (reference value: 100 %); assay type: toxicity, cell-based; settings: read-out: Activity
[8] = Cytotoxicity against human HEp-2 cells assessed as cell viability at 2 times of MIC incubated for 48 hrs by CCK8 assay (reference value: 100 %); assay type: toxicity, cell-based; settings: read-out: Activity
[9] = tested on: Enterococcus faecalis; test: Antimicrobial activity against Enterococcus faecalis JH2-2 assessed as inhibition of visible growth of bacteria incubated for 20 hrs by broth microdilution method; assay type: functional
[10] = tested on: Enterococcus faecium; test: Antimicrobial activity against Enterococcus faecium MC38 harboring erythromycin resistance rRNA methylase B and oxazolidinone-phenicol transferable resistance gene assessed as inhibition of visible growth of bacteria incubated for 20 hrs by broth microdilution method; assay type: functional
[11] = Cytotoxicity against human Caco-2 cells assessed as cell viability at 2 times of MIC incubated for 48 hrs by CCK8 assay (reference value: 99.54 %); assay type: toxicity, cell-based; settings: read-out: Activity
[12] = tested on: Staphylococcus aureus; test: microbe, parasite or virus in culture; assay type: functional; settings: M147-2, time 20 hrs
Description: Antimicrobial activity against Staphylococcus aureus M147-2 harboring erythromycin resistance rRNA methylase B, tetracycline efflux protein L and chloramphenicol-florfenicol resistance methylase assessed as inhibition of visible growth of bacteria incubated for 20 hrs by broth microdilution method

[13] = Hemolytic activity in Kunming mouse erythrocytes measured after 1 hrs by absorbance based assay; assay type: toxicity, cell-based, Erythrocyte
[14] = Hemolytic activity in Kunming mouse erythrocytes assessed as hemolysis at 4 times of MIC measured after 1 hrs by absorbance based assay relative to control; assay type: toxicity, cell-based, Erythrocyte; settings: read-out: Activity
[15] = Cytotoxicity against human Caco-2 cells assessed as cell viability at 8 times of MIC incubated for 48 hrs by CCK8 assay (reference value: 99.54 %); assay type: toxicity, cell-based; settings: read-out: Activity
[16] = Cytotoxicity against human HEp-2 cells assessed as cell viability at 16 times of MIC incubated for 48 hrs by CCK8 assay (reference value: 100 %); assay type: toxicity, cell-based; settings: read-out: Activity
[17] = tested on: Acinetobacter baumannii; test: Antimicrobial activity against Acinetobacter baumannii 7979 assessed as inhibition of visible growth of bacteria incubated for 20 hrs by broth microdilution method; assay type: functional
[18] = tested on: Staphylococcus aureus; test: Bactericidal activity against Staphylococcus aureus ATCC 29213 assessed as bacterial eradication at 4 times of MIC measured after 24 hrs by time-kill kinetics assay relative to control; assay type: functional
[19] = tested on: Staphylococcus aureus; test: Antimicrobial activity against Staphylococcus aureus YZSA-21 harboring erythromycin resistance rRNA methylase C assessed as inhibition of visible growth of bacteria incubated for 20 hrs by broth microdilution method; assay type: functional
[20] = tested on: Pseudomonas aeruginosa; test: Antimicrobial activity against Pseudomonas aeruginosa PA01 assessed as inhibition of visible growth of bacteria incubated for 20 hrs by broth microdilution method; assay type: functional
[21] = tested on: Streptococcus suis; test: microbe, parasite or virus in culture; assay type: functional; settings: SH0918, time 20 hrs
Description: Antimicrobial activity against Streptococcus suis SH0918 harboring erythromycin-resistance rRNA methylase B, tetracycline efflux protein O and oxazolidinone phenicol transferable resistance gene assessed as inhibition of visible growth of bacteria incubated for 20 hrs by broth microdilution method

[22] = tested on: Enterococcus faecalis; test: microbe, parasite or virus in culture; assay type: functional; settings: SF23-1, time 20 hrs
Description: Antimicrobial activity against Enterococcus faecalis SF23-1 harboring erythromycin-resistance rRNA methylase B, tetracycline efflux protein L and chloramphenicol-florfenicol resistance methylase assessed as inhibition of visible growth of bacteria incubated for 20 hrs by broth microdilution method

[23] = tested on: Staphylococcus aureus; test: Bactericidal activity against Staphylococcus aureus ATCC 29213 assessed as decrease in bacterial number measured within 12 hrs by time-kill kinetics assay; assay type: functional, organism-based
[24] = tested on: Streptococcus pyogenes; test: Antimicrobial activity against Streptococcus pyogenes DL02 harboring erythromycin-resistance rRNA methylase B assessed as inhibition of visible growth of bacteria incubated for 20 hrs by broth microdilution method; assay type: functional
[25] = tested on: Staphylococcus aureus; test: Drug resistance, ratio of MIC for Staphylococcus aureus ATCC 29213 measured after 28 days to MIC for Staphylococcus aureus ATCC 29213 measured after 20 hrs; assay type: functional
[26] = tested on: Staphylococcus aureus; test: Antimicrobial activity against Staphylococcus aureus YZSA-24 harboring erythromycin resistance rRNA methylase C and methicillin resistance gene resistance locus assessed as inhibition of visible growth of bacteria incubated for 20 hrs by broth microdilution method; assay type: functional
[27] = tested on: Acinetobacter baumannii; test: Antimicrobial activity against Acinetobacter baumannii AB11 assessed as inhibition of visible growth of bacteria incubated for 20 hrs by broth microdilution method; assay type: functional
[28] = Cytotoxicity against human HEp-2 cells assessed as cell viability at 1 time of MIC incubated for 48 hrs by CCK8 assay (reference value: 100 %); assay type: toxicity, cell-based; settings: read-out: Activity
[29] = tested on: Escherichia coli; test: Antimicrobial activity against Escherichia coli ATCC 25922 assessed as inhibition of visible growth of bacteria incubated for 20 hrs by broth microdilution method; assay type: functional
[30] = tested on: Staphylococcus aureus; test: Antimicrobial activity against Staphylococcus aureus ATCC 29213 assessed as inhibition of visible growth of bacteria incubated for 20 hrs by broth microdilution method; assay type: functional
[31] = tested on: Pseudomonas aeruginosa; test: Antimicrobial activity against Pseudomonas aeruginosa PA14 assessed as inhibition of visible growth of bacteria incubated for 20 hrs by broth microdilution method; assay type: functional
[32] = tested on: Staphylococcus aureus; test: Bactericidal activity against Staphylococcus aureus ATCC 29213 assessed as bacterial killing at 8 times of MIC measured within 12 hrs by time-kill kinetics assay; assay type: functional, organism-based
[33] = tested on: Enterococcus faecium; test: Antimicrobial activity against Enterococcus faecium HFY01 assessed as inhibition of visible growth of bacteria incubated for 20 hrs by broth microdilution method; assay type: functional
[34] = Hemolytic activity in Kunming mouse erythrocytes assessed as hemolysis at 1 time of MIC measured after 1 hrs by absorbance based assay relative to control; assay type: toxicity, cell-based, Erythrocyte; settings: read-out: Activity
[35] = tested on: Salmonella enteritidis; test: Antimicrobial activity against Salmonella enteritis S1 assessed as inhibition of visible growth of bacteria incubated for 20 hrs by broth microdilution method; assay type: functional, Salmonella enterica subsp. enterica serovar Enteritidis; settings: Salmonella enterica
[36] = Cytotoxicity against human Caco-2 cells assessed as cell viability at 4 times of MIC incubated for 48 hrs by CCK8 assay (reference value: 99.54 %); assay type: toxicity, cell-based; settings: read-out: Activity
[37] = tested on: Streptococcus suis; test: Antimicrobial activity against Streptococcus suis P1/7 assessed as inhibition of visible growth of bacteria incubated for 20 hrs by broth microdilution method; assay type: functional
[38] = Hemolytic activity in Kunming mouse erythrocytes assessed as hemolysis at 2 times of MIC measured after 1 hrs by absorbance based assay relative to control; assay type: toxicity, cell-based, Erythrocyte; settings: read-out: Activity
[39] = Hemolytic activity in Kunming mouse erythrocytes assessed as hemolysis at 16 times of MIC measured after 1 hrs by absorbance based assay relative to control; assay type: toxicity, cell-based, Erythrocyte; settings: read-out: Activity
[40] = Cytotoxicity against human Caco-2 cells assessed as cell viability at 1 time of MIC incubated for 48 hrs by CCK8 assay (reference value: 99.54 %); assay type: toxicity, cell-based; settings: read-out: Activity
[41] = tested on: Enterococcus faecium; test: Antimicrobial activity against Enterococcus faecium QF31 harboring erythromycin resistance rRNA methylase B and chloramphenicol-florfenicol resistance methylase assessed as inhibition of visible growth of bacteria incubated for 20 hrs by broth microdilution method; assay type: functional
[42] = Cytotoxicity against human HEp-2 cells assessed as cell viability at 4 times of MIC incubated for 48 hrs by CCK8 assay (reference value: 100 %); assay type: toxicity, cell-based; settings: read-out: Activity
[43] = tested on: Staphylococcus aureus; test: Antimicrobial activity against Staphylococcus aureus YZSA-15 harboring erythromycin resistance rRNA methylase C and vancomycin resistance locus assessed as inhibition of visible growth of bacteria incubated for 20 hrs by broth microdilution method; assay type: functional
[44] = tested on: Streptococcus agalactiae; test: Antimicrobial activity against Streptococcus agalactiae DL03 harboring erythromycin-resistance rRNA methylase B assessed as inhibition of visible growth of bacteria incubated for 20 hrs by broth microdilution method; assay type: functional

COc1ccc2nc3c(c(C(=O)O)c2c1)CC(C)C/C3=C\c1cccc(-c2ccc(Cl)c(C(F)(F)F)c2)c1 (racemic)
MIC [1]: 2 µg/mL (≈ 3.72 µM)
MIC [2]: 8 µg/mL (≈ 14.9 µM)
MIC [3]: 4 µg/mL (≈ 7.44 µM)
MIC [4]: > 128 µg/mL
viability at 48 h, 16 times of MIC [5]: 5.84%
hemolysis at 1 h, 8 times of MIC [6]: 22.3%
viability at 48 h, 8 times of MIC [7]: 35.5%
viability at 48 h, 2 times of MIC [8]: 84.8%
MIC [9]: 4 µg/mL (≈ 7.44 µM)
MIC [10]: 4 µg/mL (≈ 7.44 µM)
viability at 48 h, 2 times of MIC [11]: 69.8%
MIC [12]: 2 µg/mL (≈ 3.72 µM)
HC50 at 1 h [13]: 25.9 µg/mL
hemolysis at 1 h, 4 times of MIC [14]: 1.8%
viability at 48 h, 8 times of MIC [15]: 36.6%
viability at 48 h, 16 times of MIC [16]: 2.42%
MIC [17]: > 128 µg/mL
Activity [18]: 100%
MIC [19]: 2 µg/mL (≈ 3.72 µM)
MIC [20]: > 128 µg/mL
MIC [21]: 16 µg/mL (≈ 29.7 µM)
MIC [22]: 4 µg/mL (≈ 7.44 µM)
Activity [23]: Dose-dependent-effect
MIC [24]: 16 µg/mL (≈ 29.7 µM)
Ratio [25]: 4
MIC [26]: 2 µg/mL (≈ 3.72 µM)
MIC [27]: > 128 µg/mL
viability at 48 h, 1 time of MIC [28]: 89.8%
MIC [29]: > 128 µg/mL
MIC [30]: 2 µg/mL (≈ 3.72 µM)
MIC [31]: > 128 µg/mL
Activity [32]: Active
MIC [33]: 4 µg/mL (≈ 7.44 µM)
hemolysis at 1 h, 1 time of MIC [34]: 0%
MIC [35]: > 128 µg/mL
viability at 48 h, 4 times of MIC [36]: 51.9%
MIC [37]: 8 µg/mL (≈ 14.9 µM)
hemolysis at 1 h, 2 times of MIC [38]: 0%
hemolysis at 1 h, 16 times of MIC [39]: 63.5%
viability at 48 h, 1 time of MIC [40]: 89.6%
MIC [41]: 4 µg/mL (≈ 7.44 µM)
viability at 48 h, 4 times of MIC [42]: 66%
MIC [43]: 2 µg/mL (≈ 3.72 µM)
MIC [44]: 32 µg/mL (≈ 59.5 µM)
